The source made the active and inactive calls.
How the values were obtained:
[1] = molecular target: Acyl-homoserine lactone acylase PvdQ (Pseudomonas aeruginosa (strain LESB58), UniProt Q9I194); assay: PvdQ acylase enzyme activity blockers – biochemical, fluorescence, plate reader and imaging, cherry-picks, dose response (AID 493231)
H4 = assay: Luminescence Cell-Based Dose Response HTS to Identify Activators of 5'UTR Stem-Loop Driven Prion Protein mRNA Translation in H4 Neuroglioblastoma Cells. [Related pubchem assays: 1829 (Project Summary), 1814 (Primary HTS)]; type: functional; settings: Homo sapiens
[2] = Luminescence Cell-Based Dose Confirmation HTS to Identify Activators of 5'UTR Stem-Loop Driven Alpha-Synuclein mRNA Translation in H4 Neuroglioblastoma Cells. [Related pubchem assays: 1829 (Project Summary), 1814 (Primary HTS)]; type: functional
[3] = Luminescence Cell-Based Dose Response HTS to Identify Activators of Luciferase Translation or Activity in H4-C Neuroglioblastoma Cells. [Related pubchem assays: 1829 (Project Summary), 1814 (Primary HTS)]; type: functional
[4] = Luminescence Cell-Based Dose Response HTS to Identify Activators of 5'UTR Stem-Loop Driven Prion Protein mRNA Translation in H4-C Neuroglioblastoma Cells. [Related pubchem assays: 1829 (Project Summary), 1814 (Primary HTS)]; type: functional
[5] = Luminescence Cell-Based Dose Response HTS to Identify Activators of Luciferase Translation or Activity in H4 […] Cells. [Related pubchem assays: 1829 (Project Summary), 1814 (Primary HTS)]; type: functional
[6] = Luminescence Cell-Based Dose Retest to Confirm Activators of 5'UTR Stem-Loop Driven Alpha-Synuclein mRNA Translation in H4 Neuroglioblastoma Cells. [Related pubchem assays (depositor defined):AID1813, AID1829]; type: functional
HEK293 [7] = assay: NOD2 signaling inhibitors in MDP-stimulated cells, cell-based, uHTS, luminescence (AID 2001); type: functional; settings: Homo sapiens
Paired box protein Pax-8 = Paired box protein Pax-8 (Homo sapiens, UniProt Q06710); assay: PAX8 transcriptional activity inhibition in RMG-I – RMG-I cells, luciferase, cherry-pick, dose response (AID 687027); type: functional, cell-based;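 further: luciferase reporter driven by Pax8 target thyroperoxidase promoter measured by SteadyGlo luminescence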
[8] = molecular target: Nucleotide-binding oligomerization domain-containing protein 2 (Homo sapiens, UniProt Q9HC29); assay: inhibition of NOD2-driven NF-kB reporter – cell-based, luminescence, uHTS, HEK293 (AID 1566); type: functional
HEK293 [9] = assay: cells; type: functional, cell-based; settings: Homo sapiens
HEK293 [10] = assay: inhibition of NOD1-driven NF-kB reporter – cell-based, luminescence, uHTS, primary screen (AID 1578); type: functional; settings: Homo sapiens
[11] = molecular target: Scavenger receptor class B member 1 (Mus musculus, UniProt Q61009); assay: mouse SR-BI DiI-HDL uptake blockers – ldlA[mSR-BI] cells, fluorescence, cherry pick, dose response (AID 493194); type: functional, cell-based;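 further: cellular uptake of fluorescent DiI-labeled HDL measured as cell fluorescence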
INS1 = assay: INS-1E survival protection against cytokine death – cell-based, luminescence, retest, dose response (AID 449756); type: functional; settings: Rattus norvegicus;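 further: cell death triggered by IL-1 beta plus TNF-alpha plus IFN-gamma mixture; protective hits raise ATP signal compared with cytokine alone wells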
HEK293 [12] = assay: cells; type: functional, cell-based; settings: Homo sapiens; remark: listed apart in the source
HEK293 [13] = assay: cells; type: functional, cell-based; settings: Homo sapiens; remark: listed apart in the source
[14] = molecular target: Lysosomal acid glucosylceramidase (Homo sapiens, UniProt P04062); assay: Dose response cell-based high throughput screening assay to identify enhancers of beta-glucosidase activity. [Related pubchem assays: 784 ]; type: functional
[15] = molecular target: T1, Dual specificity protein phosphatase 3 (Homo sapiens, UniProt P51452); assay: SAR VHR1 Fluorescent Assay for In Vitro dose response studies Set 2. [Related pubchem assays (depositor defined):AID1654, AID1661, AID1878]; type: functional
[16] = molecular target: T2, Tyrosine-protein phosphatase non-receptor type 7 (Homo sapiens, UniProt P35236); assay: SAR analysis of chemical inhibitors of HePTP using a Fluorescent assay - Set 2. [Related pubchem assays (depositor defined):AID1059, AID1077, AID1661, AID2085, AID521]; type: functional
T2 sequence (P35236 whole entry): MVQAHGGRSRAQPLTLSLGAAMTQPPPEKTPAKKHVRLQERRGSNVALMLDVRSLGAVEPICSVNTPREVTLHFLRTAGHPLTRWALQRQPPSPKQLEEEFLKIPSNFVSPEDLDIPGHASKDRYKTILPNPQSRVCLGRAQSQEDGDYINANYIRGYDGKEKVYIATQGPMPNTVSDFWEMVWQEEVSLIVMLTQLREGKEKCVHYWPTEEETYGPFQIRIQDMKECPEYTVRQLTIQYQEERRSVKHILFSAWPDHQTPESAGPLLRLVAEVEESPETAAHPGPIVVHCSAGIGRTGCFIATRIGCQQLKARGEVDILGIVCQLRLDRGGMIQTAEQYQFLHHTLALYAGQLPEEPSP

[17] = molecular target: Intestinal-type alkaline phosphatase (Homo sapiens, UniProt P09923); assay: Dose Response confirmation of uHTS hits from a small molecule inhibitors of human intestinal alkaline phosphatase via a luminescent assay. [Related pubchem assays (depositor defined):AID2544, AID2574]; type: functional
[18] = molecular target: Induced myeloid leukemia cell differentiation protein Mcl-1 (Homo sapiens, UniProt Q07820); type: functional
[19] = molecular target: T3, Dual specificity protein phosphatase 6 (Rattus norvegicus, UniProt Q64346);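 further: in vitro confirmatory secondary MKP-3 assay designed to detect irreversible or slow-binding inhibitors; recombinant His-tagged rat MKP-3 acting on the substrate OMFP; inhibitor potency from reduced phosphatase rate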
T3 sequence (Q64346 whole entry): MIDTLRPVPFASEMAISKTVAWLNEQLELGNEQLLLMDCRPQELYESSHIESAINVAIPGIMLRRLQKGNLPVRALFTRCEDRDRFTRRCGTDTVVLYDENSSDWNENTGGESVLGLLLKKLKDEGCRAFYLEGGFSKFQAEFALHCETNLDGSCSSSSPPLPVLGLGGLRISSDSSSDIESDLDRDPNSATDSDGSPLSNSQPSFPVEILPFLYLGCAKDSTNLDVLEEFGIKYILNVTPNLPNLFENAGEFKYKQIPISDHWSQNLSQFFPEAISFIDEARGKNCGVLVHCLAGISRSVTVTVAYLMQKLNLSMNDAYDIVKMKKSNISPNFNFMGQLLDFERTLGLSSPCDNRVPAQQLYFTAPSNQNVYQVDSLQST

[20] = molecular target: T2, Tyrosine-protein phosphatase non-receptor type 7; type: functional
[21] = molecular target: T4, Carboxy-terminal domain RNA polymerase II polypeptide A small phosphatase 1 (Homo sapiens, UniProt Q9GZU7); assay: CTDSP1 inhibitors, concentration-response, biochemical, absorbance readout, ultra-high-throughput screen actives (AID 540297); type: functional
T4 sequence (Q9GZU7 whole entry): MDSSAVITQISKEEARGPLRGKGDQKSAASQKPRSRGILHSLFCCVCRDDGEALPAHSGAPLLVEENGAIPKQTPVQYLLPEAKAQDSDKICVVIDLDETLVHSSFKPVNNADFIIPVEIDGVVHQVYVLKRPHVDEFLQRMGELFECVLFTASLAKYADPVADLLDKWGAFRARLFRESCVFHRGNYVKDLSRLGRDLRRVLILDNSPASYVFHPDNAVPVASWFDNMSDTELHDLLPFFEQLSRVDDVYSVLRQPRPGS

[22] = molecular target: Glyceraldehyde-3-phosphate dehydrogenase (Homo sapiens, UniProt P04406)
Genome polyprotein = Genome polyprotein (dengue virus type 2, UniProt P29990); assay: flavivirus cap methylation enzyme inhibition – biochemical, confirmation dose response, primary screen (AID 588689); type: functional
[23] = alpha-synuclein stem-loop luciferase translation blockers – H4 neuroglioma cells, luminescence, confirmation (AID 1988); type: functional, cell-based
[24] = luciferase reporter signal suppression in cells – H4 neuroglioma cells, luminescence, dose response (AID 1990); type: functional, cell-based
[25] = molecular target: Voltage-dependent T-type calcium channel subunit alpha-1H (Homo sapiens, UniProt O95180); type: functional;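 further: channel activity triggered by adding a high calcium stimulation buffer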
[26] = molecular target: Photoreceptor-specific nuclear receptor (Homo sapiens, UniProt Q9Y5X4); type: functional;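 further: potency for compounds that break the NR2E3 corepressor complex and count as activators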
[27] = molecular target: Peroxisome proliferator-activated receptor gamma/Nuclear receptor corepressor 2 (Homo sapiens, UniProt P37231+Q9Y618); type: functional
[28] = molecular target: T1, Dual specificity protein phosphatase 3; assay: inhibition constants for human DUSP3 – biochemical, colorimetric, SAR follow-up (AID 2004)
[29] = molecular target: Melanin-concentrating hormone receptor 1 (Homo sapiens, UniProt Q99705); assay: Late-stage fluorescence-based counterscreen for antagonists of the G-protein coupled receptor 7 (GPR7): cell-based dose response assay to identify antagonists of the melanin-concentrating hormone receptor 1 (MCHR1). [Related pubchem assays (depositor defined):AID1861, AID1880, AID1952, AID2148, AID2251, AID2257, AID485339]; type: functional;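 further: stimulated with 30 nM MCH peptide agonist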
[30] = molecular target: T5, Neuropeptides B/W receptor type 1 (Homo sapiens, UniProt P48145); assay: human NPBW1 receptor blockade, IC50 – cell-based, fluorescence, dose response, late-stage follow-up (AID 463251); type: functional
T5 sequence (P48145 whole entry): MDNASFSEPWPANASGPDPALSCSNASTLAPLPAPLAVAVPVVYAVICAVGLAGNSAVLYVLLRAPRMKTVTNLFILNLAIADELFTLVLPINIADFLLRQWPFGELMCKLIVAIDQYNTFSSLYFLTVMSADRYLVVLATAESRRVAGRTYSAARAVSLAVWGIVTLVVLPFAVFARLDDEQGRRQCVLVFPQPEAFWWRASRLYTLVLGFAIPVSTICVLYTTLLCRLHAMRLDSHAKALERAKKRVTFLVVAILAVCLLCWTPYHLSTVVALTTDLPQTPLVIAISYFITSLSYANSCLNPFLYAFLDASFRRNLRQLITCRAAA

[31] = molecular target: Kappa-type opioid receptor (Homo sapiens, UniProt P41145); assay: SAR analysis of small molecule agonists of the kappa opioid receptor via a luminescent beta-arrestin assay - Set 2. [Related pubchem assays (depositor defined):AID1777, AID1785, AID1786, AID1966, AID2133, AID2136, AID2284, AID449737]; type: functional
Trypanosoma cruzi = assay: anti-trypanosomal activity in host cells – cell-based, plate reader, dry powder, set 3, dose response (AID 493197); type: functional
Chaperone protein dnaK = Chaperone protein dnaK (Escherichia coli, UniProt C3TRK2); assay: E. coli DnaK binders, calorimetric Kd – biophysical, isothermal titration calorimetry, beta-domain, full-length DnaK, orthogonal assay for DnaK modulator project, SAR follow-up (AID 1495)
Collagenase 3 = Collagenase 3 (Homo sapiens, UniProt P45452); assay: potency against MMP13, MMP2, MMP3, MMP14 – biochemical, probe development, late stage results, selectivity assay for MMP13 inhibitor project, late-stage follow-up, panel member MMP-13 [IC50 Assay] (AID 2067)
Neutrophil collagenase = Neutrophil collagenase (Homo sapiens, UniProt P22894); assay: potency against MMP13, MMP2, MMP3, MMP14 – biochemical, probe development, late stage results, selectivity assay for MMP13 inhibitor project, late-stage follow-up, panel member MMP-8 [IC50 Assay] (AID 2067)
[32] = molecular target: Cyclin-dependent kinase 5/CDK5 activator 1 (Homo sapiens, UniProt Q00535); assay: blockade of human CDK5 activity – biochemical, cherry-picked samples, set 2, dose response (AID 504545)

T1 sequence (P51452 whole entry): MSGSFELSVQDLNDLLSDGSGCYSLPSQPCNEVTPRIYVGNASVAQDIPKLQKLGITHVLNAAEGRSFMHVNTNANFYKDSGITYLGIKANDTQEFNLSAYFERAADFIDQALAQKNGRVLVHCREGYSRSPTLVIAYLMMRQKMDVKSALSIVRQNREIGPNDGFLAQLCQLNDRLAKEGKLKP
Chain of Intestinal-type alkaline phosphatase (P09923 whole entry): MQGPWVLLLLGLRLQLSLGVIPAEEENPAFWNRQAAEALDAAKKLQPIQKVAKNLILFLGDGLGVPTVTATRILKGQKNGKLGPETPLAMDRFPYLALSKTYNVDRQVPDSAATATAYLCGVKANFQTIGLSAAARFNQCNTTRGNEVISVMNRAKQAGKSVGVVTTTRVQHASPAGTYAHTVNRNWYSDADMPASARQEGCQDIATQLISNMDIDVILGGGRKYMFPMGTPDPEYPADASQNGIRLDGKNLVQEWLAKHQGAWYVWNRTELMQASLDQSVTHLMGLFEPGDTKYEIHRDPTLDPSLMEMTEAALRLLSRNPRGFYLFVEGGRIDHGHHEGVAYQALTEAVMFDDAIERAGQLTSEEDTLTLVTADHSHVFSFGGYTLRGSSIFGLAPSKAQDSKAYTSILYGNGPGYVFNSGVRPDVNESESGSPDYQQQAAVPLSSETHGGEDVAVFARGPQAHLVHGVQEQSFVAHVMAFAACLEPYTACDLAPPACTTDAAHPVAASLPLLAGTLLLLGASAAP
Chain of Melanin-concentrating hormone receptor 1 (Q99705 whole entry): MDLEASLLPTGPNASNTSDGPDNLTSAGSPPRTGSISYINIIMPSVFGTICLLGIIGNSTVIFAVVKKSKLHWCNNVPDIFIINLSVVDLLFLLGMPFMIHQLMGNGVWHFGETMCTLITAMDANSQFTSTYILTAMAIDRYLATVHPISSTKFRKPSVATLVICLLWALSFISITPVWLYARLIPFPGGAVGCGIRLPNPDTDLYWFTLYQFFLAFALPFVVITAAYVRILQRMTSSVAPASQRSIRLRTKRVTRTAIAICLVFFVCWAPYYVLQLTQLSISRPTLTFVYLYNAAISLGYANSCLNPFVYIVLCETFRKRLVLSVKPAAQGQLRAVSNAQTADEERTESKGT
Chain of Kappa-type opioid receptor (P41145 whole entry): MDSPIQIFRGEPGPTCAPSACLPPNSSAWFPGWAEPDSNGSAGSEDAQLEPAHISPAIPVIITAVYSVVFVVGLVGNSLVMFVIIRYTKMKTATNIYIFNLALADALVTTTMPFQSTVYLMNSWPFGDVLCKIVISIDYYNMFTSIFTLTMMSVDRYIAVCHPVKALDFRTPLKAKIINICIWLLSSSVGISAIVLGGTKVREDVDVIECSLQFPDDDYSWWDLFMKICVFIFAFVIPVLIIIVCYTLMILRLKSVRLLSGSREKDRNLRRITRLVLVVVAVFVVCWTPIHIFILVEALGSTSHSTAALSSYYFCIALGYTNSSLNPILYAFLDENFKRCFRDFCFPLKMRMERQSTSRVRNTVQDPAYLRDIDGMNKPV
Chain of Genome polyprotein (P29990 2492-3391 limits assumed): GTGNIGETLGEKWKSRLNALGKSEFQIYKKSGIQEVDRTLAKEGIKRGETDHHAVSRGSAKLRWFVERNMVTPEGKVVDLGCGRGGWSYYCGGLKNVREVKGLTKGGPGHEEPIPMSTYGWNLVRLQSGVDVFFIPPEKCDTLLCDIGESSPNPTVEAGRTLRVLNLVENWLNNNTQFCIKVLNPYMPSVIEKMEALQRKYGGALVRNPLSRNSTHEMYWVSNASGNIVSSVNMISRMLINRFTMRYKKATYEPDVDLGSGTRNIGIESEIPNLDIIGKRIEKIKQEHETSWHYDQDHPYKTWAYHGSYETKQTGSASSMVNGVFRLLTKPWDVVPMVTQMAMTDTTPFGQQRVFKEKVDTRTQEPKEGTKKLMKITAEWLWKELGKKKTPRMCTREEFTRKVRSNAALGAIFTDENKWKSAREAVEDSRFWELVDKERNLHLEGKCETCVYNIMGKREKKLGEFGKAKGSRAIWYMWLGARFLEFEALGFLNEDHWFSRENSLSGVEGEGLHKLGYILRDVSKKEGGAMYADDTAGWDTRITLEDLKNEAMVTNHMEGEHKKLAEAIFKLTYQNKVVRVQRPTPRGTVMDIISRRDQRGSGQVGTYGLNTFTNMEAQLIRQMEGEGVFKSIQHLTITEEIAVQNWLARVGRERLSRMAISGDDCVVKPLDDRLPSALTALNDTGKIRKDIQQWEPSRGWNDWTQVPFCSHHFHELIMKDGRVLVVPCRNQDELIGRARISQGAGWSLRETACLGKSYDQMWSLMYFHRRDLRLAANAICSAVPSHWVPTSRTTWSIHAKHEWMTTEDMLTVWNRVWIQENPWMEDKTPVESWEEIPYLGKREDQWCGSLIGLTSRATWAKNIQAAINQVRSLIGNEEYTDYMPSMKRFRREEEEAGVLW
Chain of Induced myeloid leukemia cell differentiation protein Mcl-1 (Q07820 whole entry): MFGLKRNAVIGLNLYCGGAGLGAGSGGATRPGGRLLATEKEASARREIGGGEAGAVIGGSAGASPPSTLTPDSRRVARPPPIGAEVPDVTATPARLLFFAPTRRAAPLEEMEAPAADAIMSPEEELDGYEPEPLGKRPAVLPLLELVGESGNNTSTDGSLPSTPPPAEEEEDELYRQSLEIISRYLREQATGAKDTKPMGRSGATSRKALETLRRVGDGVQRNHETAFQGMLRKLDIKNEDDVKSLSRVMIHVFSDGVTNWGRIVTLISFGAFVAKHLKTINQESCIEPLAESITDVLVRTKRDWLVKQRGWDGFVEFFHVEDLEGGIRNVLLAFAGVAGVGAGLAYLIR
Chain of Acyl-homoserine lactone acylase PvdQ (Q9I194 24-193 limits assumed): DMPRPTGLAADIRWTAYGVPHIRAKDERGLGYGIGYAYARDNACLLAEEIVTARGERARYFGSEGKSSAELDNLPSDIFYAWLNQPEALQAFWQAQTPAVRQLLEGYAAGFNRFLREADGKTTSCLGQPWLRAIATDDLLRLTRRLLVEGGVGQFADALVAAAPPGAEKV
Chain of Acyl-homoserine lactone acylase PvdQ (Q9I194 217-762 limits assumed): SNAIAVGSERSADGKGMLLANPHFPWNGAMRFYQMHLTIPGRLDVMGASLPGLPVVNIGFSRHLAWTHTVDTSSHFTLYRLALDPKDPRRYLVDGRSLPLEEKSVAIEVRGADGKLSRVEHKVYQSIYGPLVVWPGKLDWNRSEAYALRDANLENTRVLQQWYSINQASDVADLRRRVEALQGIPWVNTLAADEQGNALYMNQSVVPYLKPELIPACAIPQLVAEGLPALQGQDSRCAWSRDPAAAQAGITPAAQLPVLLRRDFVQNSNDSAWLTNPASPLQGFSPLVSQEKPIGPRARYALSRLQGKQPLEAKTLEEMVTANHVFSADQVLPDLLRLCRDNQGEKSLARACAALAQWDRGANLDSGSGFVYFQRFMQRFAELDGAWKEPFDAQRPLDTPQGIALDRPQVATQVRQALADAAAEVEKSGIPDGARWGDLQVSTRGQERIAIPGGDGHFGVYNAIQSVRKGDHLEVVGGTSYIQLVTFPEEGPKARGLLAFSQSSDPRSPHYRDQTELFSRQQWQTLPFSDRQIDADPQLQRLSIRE
Chain of Lysosomal acid glucosylceramidase (P04062 whole entry): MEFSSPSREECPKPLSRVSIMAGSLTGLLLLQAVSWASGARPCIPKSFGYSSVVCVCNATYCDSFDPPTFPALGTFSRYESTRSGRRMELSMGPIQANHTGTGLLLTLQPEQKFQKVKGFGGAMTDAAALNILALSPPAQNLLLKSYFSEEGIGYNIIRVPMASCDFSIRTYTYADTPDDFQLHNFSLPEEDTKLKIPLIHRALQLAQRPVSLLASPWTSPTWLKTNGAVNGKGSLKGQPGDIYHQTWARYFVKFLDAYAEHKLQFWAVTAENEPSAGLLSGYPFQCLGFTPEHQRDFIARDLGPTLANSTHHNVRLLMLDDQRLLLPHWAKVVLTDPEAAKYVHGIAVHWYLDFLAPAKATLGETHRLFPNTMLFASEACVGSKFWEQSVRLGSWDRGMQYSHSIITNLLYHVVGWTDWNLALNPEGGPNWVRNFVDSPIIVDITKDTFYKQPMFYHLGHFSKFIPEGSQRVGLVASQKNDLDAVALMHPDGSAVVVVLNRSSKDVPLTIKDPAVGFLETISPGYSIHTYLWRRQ
Chain of Paired box protein Pax-8 (Q06710 whole entry, the tested form may be a part): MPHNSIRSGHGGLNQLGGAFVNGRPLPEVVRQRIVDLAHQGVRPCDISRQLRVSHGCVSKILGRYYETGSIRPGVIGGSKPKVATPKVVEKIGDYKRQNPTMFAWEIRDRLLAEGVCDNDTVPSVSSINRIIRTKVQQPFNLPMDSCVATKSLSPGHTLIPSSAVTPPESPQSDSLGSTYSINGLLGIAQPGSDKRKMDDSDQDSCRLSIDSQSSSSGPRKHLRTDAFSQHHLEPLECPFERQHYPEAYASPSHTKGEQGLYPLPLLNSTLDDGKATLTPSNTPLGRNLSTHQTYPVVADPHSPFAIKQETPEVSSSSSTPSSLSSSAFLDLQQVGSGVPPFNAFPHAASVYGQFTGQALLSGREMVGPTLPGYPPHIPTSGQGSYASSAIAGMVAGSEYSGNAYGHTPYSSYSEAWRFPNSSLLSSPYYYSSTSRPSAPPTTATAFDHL
Chain of Photoreceptor-specific nuclear receptor (Q9Y5X4 whole entry): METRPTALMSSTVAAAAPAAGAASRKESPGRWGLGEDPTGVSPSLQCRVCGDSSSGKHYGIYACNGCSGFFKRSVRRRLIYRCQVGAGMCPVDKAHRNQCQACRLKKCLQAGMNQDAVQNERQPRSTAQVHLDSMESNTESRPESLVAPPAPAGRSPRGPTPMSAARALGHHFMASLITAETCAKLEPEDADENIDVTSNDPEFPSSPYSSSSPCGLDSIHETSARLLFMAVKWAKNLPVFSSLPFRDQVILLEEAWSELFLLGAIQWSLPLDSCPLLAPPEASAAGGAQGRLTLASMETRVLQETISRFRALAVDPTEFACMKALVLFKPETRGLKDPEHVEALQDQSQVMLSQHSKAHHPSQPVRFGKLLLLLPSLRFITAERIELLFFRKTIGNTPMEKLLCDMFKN

CC(C)N=C(NC#N)SCc1ccccc1F
AC50 [1]: 10.8 µM (active)

N#Cc1cc2c(nc1SCC(=O)Nc1ccc(Cl)cc1)C1CCN2CC1
EC50 (H4): > 120 µM (not active) | EC50 [2]: 5.38 µM (active) | EC50 [3]: 2.33 µM (active) | EC50 [4]: 20.1 µM (active) | EC50 [5]: 27.9 µM (active) | EC50 [6]: 2.86 µM (active)

COc1ccc(NC(=O)c2c(Nc3ccccc3)sc(C(=O)c3ccc(F)cc3)c2N)cc1
IC50 (HEK293 [7]): > 20 µM (inactive) | AC50 (Paired box protein Pax-8): 1.69 µM (active) | EC50 [8]: > 20 µM (inactive) | IC50 (HEK293 [9]): > 20 µM (inactive) | EC50 (HEK293 [10]): > 20 µM (inactive) | AC50 [11]: 2.46 µM (active) | AC50 (INS1): 2.91 µM (active) | IC50 (HEK293 [12]): > 20 µM (inactive) | IC50 (HEK293 [13]): > 20 µM (inactive)

CCCCN(CC)CCCNC(=O)c1cc2cc3ccc(OC)cc3nc2o1
EC50 [14]: > 50 µM (not active)

CCOc1ccc(-n2c(N)c(C(=O)NCc3ccco3)sc2=S)cc1
IC50 [15]: > 100 µM (inactive) | IC50 [16]: > 100 µM (inactive)

O=C(Cc1coc2ccc3ccccc3c12)NCc1ccccc1
IC50 [17]: > 100 µM (inactive)

Cc1ccc2c(c1Cl)NC(C(=O)O)C1CC(Sc3ccccc3[N+](=O)[O-])C(Cl)C21 (stereo not given)
IC50 [18]: 2.96 µM (active) | IC50 [19]: 42.6 µM (active) | IC50 [20]: 13.7 µM (active) | IC50 [21]: 2.97 µM (active) | IC50 [22]: > 100 µM (not active) | IC50 (Genome polyprotein): 76.9 µM (active)

Cc1ccc(Cn2nc(C)c(NC(=O)c3cc(-c4ccc5c(c4)OCO5)on3)c2C)cc1
EC50 [23]: 14 µM (active) | EC50 [24]: > 120 µM (not active) | EC50 [25]: 30 µM (active)

O=C(O)c1cc(-c2ccco2)nc2ccc(Br)cc12
IC50 [26]: > 39.8 µM (not active) | IC50 [27]: 1.58 µM (active)

O=C(O)C(Cc1ccccc1)NC(=S)Nc1ccccc1 (stereo not given)
Ki [28]: 28.8 µM (inactive)

Cc1ccc(-n2ccc(Cl)c(Cl)c2=O)cc1
IC50 [29]: > 20 µM (inactive) | IC50 [30]: > 20 µM (inactive)

COC(=O)CN(Cc1cccs1)C(=O)c1cccnc1
EC50 [31]: > 20 µM (inactive)

CCNC(=O)C1(C)CCCN(Cc2cccc(Oc3ccccc3)c2)C1 (stereo not given)
AC50 (Trypanosoma cruzi): 45.6 µM (active)

O=C(c1cccs1)N1CCN(CCO)CC1
Kd (Chaperone protein dnaK): 16.7 µM (inactive)

C#CCSc1nc2c(c(=O)[nH]1)CCC2
IC50 (Collagenase 3): > 39.8 µM (inactive) | IC50 (Neutrophil collagenase): > 39.8 µM (active)

CCc1c(O)nc(N)nc1Nc1ccccc1Cl
AC50 [32]: 7.32 µM (active)
